Reference: patent publication US20250127905A1, “GLUTARIMIDE COMPOUND AND USE THEREOF” (MEDSHINE DISCOVERY INC., priority 2021, published 2025)
Where a name gives a salt, the structure may show the parent alone.

Tests used:
[1] = Pharmacokinetic evaluation in Beagles; assay type: in vivo
Procedure: In this study, male Beagles were selected as test animals, and LC/MS/MS method was used to quantify plasma concentrations of the test compound intravenously injected or intragastrically administered to Beagles at different time points, so as to evaluate the pharmacokinetic profile of the test drug in Beagles.
• Beagles (male, 9 to 11 kg, Jiangsu Yadong Institute of Experimental Animals Co., Ltd.).
A clarified solution or suspension of the test compound was injected into Beagles (feeding) via the tail vein (vehicle: 5% DMSO/10% Solutol/85% H2O), or intragastrically administered into Beagles (feeding). For intravenous injection, 1 mL of blood was collected from the forelimb vein at 0 h (pre-administration) and 0.083 h, 0.25 h, 0.5 h, 1 h, 2 h, 4 h, 6 h, 8 h, and 24 h after administration, and anticoagulated with EDTA-2K. The mixture was thoroughly vortexed and mixed, and centrifuged at 6000 g for 3 minutes at 2 to 8° C. For oral administration, 1 mL of blood was collected from the forelimb vein at 0 h (pre-administration) and 0.083 h, 0.25 h, 0.5 h, 1 h, 2 h, 4 h, 6 h, 8 h, and 24 h after administration, and anticoagulated with EDTA-2K. The mixture was thoroughly vortexed and mixed, and centrifuged at 6000 g for 3 minutes at 2 to 8° C. Plasma concentrations were determined by LC-MS/MS method, and relevant pharmacokinetic parameters were calculated using Phoenix WinNonlin 8.2.0 pharmacokinetic software with non-compartmental model linear-log trapezoidal method.

[2] = system: sodium urate-induced acute gouty arthritis; assay: Sodium urate-induced acute gouty arthritis in rats; assay type: in vivo, SD rats
Procedure: It is to evaluate the preventive and therapeutic effect of compounds on sodium urate-induced acute gouty arthritis in rats. Animals: 5-week-old male SD rats; source: Zhejiang Vital River Laboratory Animal Technology Co., Ltd. Experimental grouping: After 3 days of acclimatization, all animals were measured for basal hindfoot volume, arthritis index score, and bilateral hindfoot pain threshold. 50 animals were selected and divided equally into 5 groups with 10 animals each based on body weight, hindfoot volume, arthritis index, and bilateral hindfoot pain threshold. The day of initiation of administration was recorded as D-1, and intragastric administration was performed twice a day for 6 consecutive days (D-1 to […]). 1 hour after the first administration at D0 (1 day after administration), except for the blank control group, the other rats were anesthetized with isoflurane, and 50 μL (50 mg/mL) of sodium urate solution was injected into the joint cavity for modeling at the lateral posterior side of the right ankle joint, which was used as a puncture point. Joint swelling would peak after 8 to 12 hours (lasting about 72 hours). Foot volumes of the animals were measured and arthritis index (AI) scoring was performed before and 2, 5, 8, 11, 24, 48, 72, and 96 hours after the onset of inflammation; pain thresholds were measured using a bipedal balance pain tester before and 2, 24, 48, 72, and 96 hours after the onset of inflammation. Photographs of critical swelling were taken at the peak of joint swelling (8 to 12 hours) in each group of animals and retained. Foot volume measurement: Before measurement, a line was drawn at the ankle joint of a rat with a marker to mark the position, and the instrument was added with clean water and zeroed to be ready for measurement. The hind limbs of the rat were placed in the water so that the marked line at the ankle joint was on the surface of the liquid, at which time the foot pedal was pressed to read the foot volume of the rat. At the end of the measurement, the foot pedal was pressed again for zeroing to be ready for the measurement of the next rat. Arthritis index (AI): The foot volume was measured while the swelling of the modeled foot was scored. Arthritis index scoring criteria: [table] Experimental data were expressed as Mean±SD; data were statistically analyzed using IBM SPSS Statistics 21, and p<0.05 was considered a significant difference between the two groups.

[3] = Intragastric administration (3 mg/kg)
[4] = 30 mg/kg intragastric twice a day, time 0 h
[5] = 30 mg/kg intragastric twice a day, time 2 h
[6] = 30 mg/kg intragastric twice a day, time 5 h
[7] = 30 mg/kg intragastric twice a day, time 8 h
[8] = 30 mg/kg intragastric twice a day, time 11 h
[9] = 30 mg/kg intragastric twice a day, time 24 h
[10] = 30 mg/kg intragastric twice a day, time 48 h
[11] = 30 mg/kg intragastric twice a day, time 72 h
[12] = 30 mg/kg intragastric twice a day, time 96 h
[13] = 100 mg/kg intragastric twice a day, time 0 h
[14] = 100 mg/kg intragastric twice a day, time 2 h
[15] = 100 mg/kg intragastric twice a day, time 5 h
[16] = 100 mg/kg intragastric twice a day, time 8 h
[17] = 100 mg/kg intragastric twice a day, time 11 h
[18] = 100 mg/kg intragastric twice a day, time 24 h
[19] = 100 mg/kg intragastric twice a day, time 48 h
[20] = 100 mg/kg intragastric twice a day, time 72 h
[21] = 100 mg/kg intragastric twice a day, time 96 h
[22] = 200 mg/kg intragastric twice a day, time 0 h
[23] = 200 mg/kg intragastric twice a day, time 2 h
[24] = 200 mg/kg intragastric twice a day, time 5 h
[25] = 200 mg/kg intragastric twice a day, time 8 h
[26] = 200 mg/kg intragastric twice a day, time 11 h
[27] = 200 mg/kg intragastric twice a day, time 24 h
[28] = 200 mg/kg intragastric twice a day, time 48 h
[29] = 200 mg/kg intragastric twice a day, time 72 h
[30] = 200 mg/kg intragastric twice a day, time 96 h

SMILES: O=C1CCC(c2noc3c(NC(=O)CN4CCN(C[C@H]5CC[C@H](n6cc(NC(=O)c7cnn8ccc(N9C[C@H]%10C[C@@H]9CO%10)nc78)c(C(F)F)n6)CC5)CC4)cccc23)C(=O)N1 (some centres unmarked) [Hydrochloride of WX015]
- Area under the drug-time curve (0-inf) [1, 3]: 1.13 µM·h
- Peak concentration [1, 3]: 0.12 µM
- Time to peak concentration [1, 3]: 4.67 h
- Area under the drug-time curve (0-inf) ([1]; Intravenous injection (0.5 mg/kg)): 0.27 µM·h
- clearance ([1]; male, beagle, dog, plasma, Intravenous injection (0.5 mg/kg)): 37.5 mL/min/kg
- Vd ([1]; male, beagle, dog, plasma, Intravenous injection (0.5 mg/kg), read-out: Apparent volume of distribution): 8.44 L/kg
- half-life ([1]; male, beagle, dog, plasma, Intravenous injection (0.5 mg/kg), read-out: Elimination half-life (converted)): 2.93 h
- bioavailability ([1]; male, beagle, dog, plasma, oral, IV 0.5 mg/kg, intragastric 3 mg/kg, read-out: Bioavailability F): 70.3%
- Arthritis index [2, 4]: 0
- Foot volume [2, 4]: 3.63 mL
- Hindfoot weight-bearing difference [2, 4]: 0.69 g
- Arthritis index [2, 5]: 1
- Foot volume [2, 5]: 3.88 mL
- Hindfoot weight-bearing difference [2, 5]: 19.09 g
- Arthritis index [2, 6]: 1
- Foot volume [2, 6]: 3.9 mL
- Arthritis index [2, 7]: 1
- Foot volume [2, 7]: 3.9 mL
- Arthritis index [2, 8]: 1
- Foot volume [2, 8]: 3.92 mL
- Arthritis index [2, 9]: 0.9
- Foot volume [2, 9]: 3.9 mL
- Hindfoot weight-bearing difference [2, 9]: 13.22 g
- Arthritis index [2, 10]: 0.5
- Foot volume [2, 10]: 3.91 mL
- Hindfoot weight-bearing difference [2, 10]: 6.6 g
- Arthritis index [2, 11]: 0.3
- Foot volume [2, 11]: 3.94 mL
- Hindfoot weight-bearing difference [2, 11]: 4.3 g
- Arthritis index [2, 12]: 0.1
- Foot volume [2, 12]: 3.96 mL
- Hindfoot weight-bearing difference [2, 12]: 2.1 g
- Arthritis index [2, 13]: 0
- Foot volume [2, 13]: 3.63 mL
- Hindfoot weight-bearing difference [2, 13]: 0.12 g
- Arthritis index [2, 14]: 1
- Foot volume [2, 14]: 3.85 mL
- Hindfoot weight-bearing difference [2, 14]: 16.38 g
- Arthritis index [2, 15]: 1
- Foot volume [2, 15]: 3.88 mL
- Arthritis index [2, 16]: 1
- Foot volume [2, 16]: 3.9 mL
- Arthritis index [2, 17]: 1
- Foot volume [2, 17]: 3.91 mL
- Arthritis index [2, 18]: 0.6
- Foot volume [2, 18]: 3.88 mL
- Hindfoot weight-bearing difference [2, 18]: 12.2 g
- Arthritis index [2, 19]: 0.3
- Foot volume [2, 19]: 3.9 mL
- Hindfoot weight-bearing difference [2, 19]: 5.72 g
- Arthritis index [2, 20]: 0.2
- Foot volume [2, 20]: 3.93 mL
- Hindfoot weight-bearing difference [2, 20]: 3 g
- Arthritis index [2, 21]: 0
- Foot volume [2, 21]: 3.95 mL
- Hindfoot weight-bearing difference [2, 21]: 2.01 g
- Arthritis index [2, 22]: 0
- Foot volume [2, 22]: 3.62 mL
- Hindfoot weight-bearing difference [2, 22]: -0.23 g
- Arthritis index [2, 23]: 1
- Foot volume [2, 23]: 3.84 mL
- Hindfoot weight-bearing difference [2, 23]: 14.81 g
- Arthritis index [2, 24]: 1
- Foot volume [2, 24]: 3.88 mL
- Arthritis index [2, 25]: 1
- Foot volume [2, 25]: 3.89 mL
- Arthritis index [2, 26]: 1
- Foot volume [2, 26]: 3.88 mL
- Arthritis index [2, 27]: 0.5
- Foot volume [2, 27]: 3.87 mL
- Hindfoot weight-bearing difference [2, 27]: 11.32 g
- Arthritis index [2, 28]: 0.2
- Foot volume [2, 28]: 3.89 mL
- Hindfoot weight-bearing difference [2, 28]: 3.91 g
- Arthritis index [2, 29]: 0
- Foot volume [2, 29]: 3.91 mL
- Hindfoot weight-bearing difference [2, 29]: 2.1 g
- Arthritis index [2, 30]: 0
- Foot volume [2, 30]: 3.93 mL
- Hindfoot weight-bearing difference [2, 30]: 1.94 g
